# Patent US10167313B2, “Selective caspase inhibitors and uses thereof” (Genesis Technologies Limited, priority 2008, dated 2019)
# Read-outs that look alike come from different tables or passages of the source.
# Tests used:
# [1] = biological target: Caspase 3/7 (Glo3/7); test: Glo3/7 assay
# [2] = system: Hela cells; test: Inhibition of proteolytic cleavage of PARP in staurosporine-treated live Hela cells; assay type: cell-based; settings: for inhibition at 50 µM: Homo sapiens; for effectivity in inhibiting PARP cleavage (in words): relative to DEVD-fmk
# Procedure: To test the efficacy of caspase-3 inhibitors at the cellular level, the ability of selected compounds to inhibit the proteolytic cleavage of PARP (poly ADP-ribose polymerase) was evaluated in live Hela cells.
# Briefly, in this assay Hela cells are seeded in 96 well plates and incubated for 4 hours with staurosporine, a well characterized inducer of apoptosis, alone or together with different concentrations of compound (50, 25, 10 and 3 uM). After formaldehyde-based fixation, the cells are stained with a fluorescein-labeled anti-cleaved PARP antibody (Cell signaling, Cat#: 9547) and counterstained with Hoechst33342 (Invitrogen, Cat#: H3570) to mark all nuclei. Fluorescence images are taken on a Cellomics™ microscope system (Thermo Scientific, Pittsburgh, USA) with the Hoechst stain in the blue channel and the cleaved PARP antibody stain in the green channel. The percentage of cleaved PARP positive cells is determined by calculating the ratio between nuclei with a cleaved PARP antibody staining above a certain threshold and all (Hoechst positive) nuclei. The efficacy of caspase-3 inhibition is determined by calculating the ratio between cleaved PARP positive cells after staurosporine incubation together with compounds and staurosporine incubation without compounds.
# [3] = biological target: caspase-5 (Homo sapiens (Human), UniProt P51878); test: Caspase-5 Inhibitor Drug Screening Kit, fluorometric enzymatic assay; settings: for IC50: read-out: Caspase enzymatic activity, IC50 (uM) Caspase 5, 30-minute incubation at 37° C., AFC liberation; for inhibitory activity for caspase-5 (in words): tested dose-range 1-3333 nM
# Procedure: (§1) The level of inhibition of caspase-1, -3, -5, -7, -9 activity was determined by comparison of the relative fluorescence intensity in samples with or without the compound.
# [4] = biological target: caspase-1 (Homo sapiens (Human), UniProt P29466); test: Caspase-1 Inhibitor Drug Screening Kit, fluorometric enzymatic assay; settings: for IC50: read-out: Caspase enzymatic activity, IC50 (uM) Caspase 1, 30-minute incubation at 37° C., AFC liberation; for inhibitory activity for caspase-1 (in words): tested dose-range 1-3333 nM
# Procedure: as §1
# [5] = biological target: caspase-9 (Homo sapiens (Human), UniProt P55211); test: Caspase-9 Inhibitor Drug Screening Kit, fluorometric enzymatic assay; settings: for IC50: read-out: Caspase enzymatic activity, IC50 (uM) Caspase 9, 30-minute incubation at 37° C., AFC liberation; for inhibitory activity for caspase-9 (in words): tested dose-range 1-3333 nM
# Procedure: as §1
# [6] = biological target: caspase-7 (Homo sapiens (Human), UniProt P55210); test: Caspase-7 Inhibitor Drug Screening Kit, fluorometric enzymatic assay; settings: for selectivity of caspase-3 over caspase-7 (IC50 fold difference): based on the IC50 values; for IC50: read-out: Caspase enzymatic activity, IC50 (uM) Caspase 7, 30-minute incubation at 37° C., AFC liberation
# Procedure: as §1
# [7] = biological target: caspase-3 (Homo sapiens (Human), UniProt P42574); test: Caspase-3 Inhibitor Drug Screening Kit, fluorometric enzymatic assay; assay type: biochemical; settings: for IC50: 30-minute incubation at 37° C., AFC liberation
# Procedure: as §1
# [8] = 50 uM, relative to DEVDFMK, read-out: % of inhibition with compound relative to DEVDFMK
# [9] = read-out: % inhibition of PARP cleavage at 50 uM compound, staurosporine 4 hours, 50 uM compound
# caspase-7, sequence (P55210 24-198): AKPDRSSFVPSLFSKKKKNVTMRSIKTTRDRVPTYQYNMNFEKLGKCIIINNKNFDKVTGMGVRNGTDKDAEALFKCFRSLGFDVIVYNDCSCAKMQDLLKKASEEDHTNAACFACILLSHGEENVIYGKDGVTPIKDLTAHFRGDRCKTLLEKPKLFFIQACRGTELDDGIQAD
# caspase-7, sequence (P55210 207-303): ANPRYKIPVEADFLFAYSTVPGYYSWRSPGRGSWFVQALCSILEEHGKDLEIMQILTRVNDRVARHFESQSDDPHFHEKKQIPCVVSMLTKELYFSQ
# caspase-3, sequence (P42574 29-175): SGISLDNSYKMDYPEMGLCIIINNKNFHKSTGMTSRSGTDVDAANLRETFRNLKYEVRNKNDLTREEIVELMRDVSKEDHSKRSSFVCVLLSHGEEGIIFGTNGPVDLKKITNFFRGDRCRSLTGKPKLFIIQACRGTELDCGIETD
# caspase-3, sequence (P42574 176-277): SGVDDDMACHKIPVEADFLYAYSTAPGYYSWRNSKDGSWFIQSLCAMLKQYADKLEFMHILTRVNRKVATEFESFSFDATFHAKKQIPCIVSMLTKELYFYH
# caspase-5, sequence (P51878 137-327): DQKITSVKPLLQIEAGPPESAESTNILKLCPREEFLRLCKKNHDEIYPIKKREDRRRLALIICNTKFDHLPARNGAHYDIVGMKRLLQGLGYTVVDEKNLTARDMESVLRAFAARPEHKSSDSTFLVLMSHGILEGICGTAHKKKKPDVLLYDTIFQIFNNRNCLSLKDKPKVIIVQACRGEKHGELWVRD
# caspase-5, sequence (P51878 347-434): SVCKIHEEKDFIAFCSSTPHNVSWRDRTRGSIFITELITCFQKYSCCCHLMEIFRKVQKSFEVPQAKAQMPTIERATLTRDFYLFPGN
# caspase-1, sequence (P29466 120-297): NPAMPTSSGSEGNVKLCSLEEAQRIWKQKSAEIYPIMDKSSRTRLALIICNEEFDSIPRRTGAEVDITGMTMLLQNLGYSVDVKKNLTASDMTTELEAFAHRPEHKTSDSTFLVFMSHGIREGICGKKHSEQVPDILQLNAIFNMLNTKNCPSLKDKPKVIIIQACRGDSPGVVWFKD
# caspase-1, sequence (P29466 317-404): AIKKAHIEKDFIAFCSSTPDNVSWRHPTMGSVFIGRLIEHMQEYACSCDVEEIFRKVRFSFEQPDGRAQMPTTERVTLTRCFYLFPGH
# caspase-9, sequence (P55211 1-315): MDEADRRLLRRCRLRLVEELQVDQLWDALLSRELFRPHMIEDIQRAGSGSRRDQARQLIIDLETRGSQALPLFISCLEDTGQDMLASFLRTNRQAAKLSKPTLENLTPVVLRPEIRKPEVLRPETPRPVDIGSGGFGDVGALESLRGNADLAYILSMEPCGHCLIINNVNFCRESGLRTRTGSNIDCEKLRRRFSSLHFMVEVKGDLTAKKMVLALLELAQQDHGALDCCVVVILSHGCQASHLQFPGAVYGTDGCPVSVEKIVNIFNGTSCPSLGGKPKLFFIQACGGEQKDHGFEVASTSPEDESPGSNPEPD
# caspase-9, sequence (P55211 331-416): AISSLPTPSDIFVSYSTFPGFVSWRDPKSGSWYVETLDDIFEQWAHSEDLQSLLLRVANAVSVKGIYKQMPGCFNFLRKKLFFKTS
IC50 [1] [µM],IC50 [3] [µM],IC50 [4] [µM],inhibitory activity for caspase-1 (in words) [4],IC50 [5] [µM],inhibitory activity for caspase-9 (in words) [5],selectivity of caspase-3 over caspase-7 (IC50 fold difference) [6],inhibitory activity for caspase-5 (in words) [3],IC50 [7] [µM],IC50 [6] [µM],inhibition at 10 µM ([4]; read-out: Inhibition of Caspase-1) [%],inhibition at 10 µM ([5]; read-out: Inhibition of Caspase-9) [%],inhibition at 10 µM ([3]; read-out: Inhibition of Caspase-5) [%],activity against caspase-3 (in words) [7],fold less efficiency against caspase-1 than against group III caspases [4],Structure (SMILES),"inhibition at 50 µM [2, 8] [%]","inhibition at 50 µM [2, 9] [%]",reduction of the percentage of PARP positive cells after staurosporine treatment [2],effectivity in inhibiting PARP cleavage (in words) [2]
,> 10,,,> 10,,,,0.3,> 10,,,,,,"CC(C)[C@H](NC(=O)[C@@H](Cc1ccc2ccccc2n1)NC(=O)[C@H](CC(=O)O)NC(=O)OCc1ccccc1)C(=O)N[C@H](/C=C/S(=O)(=O)c1ccccc1)CC(=O)O (stereo in doubt) [Compound 70, Z-Asp-(D,L Ala(2′-quinolyl))-Val- Aspphenyl vinylsulfone]",,,,
,> 3.33,,,> 10,,,,> 10,> 10,,,,,,"CC(C)[C@H](NC(=O)[C@H](Cc1ccc(O)cc1)NC(=O)OCc1ccccc1)C(=O)N[C@@H](C)C(=O)N[C@H](/C=C/S(=O)(=O)c1ccccc1)CC(=O)O [Compound 96, Z-Tyr-Val-Ala-Asp phenyl vinyl sulfone]",,,,
0.04,> 3.33,> 3.33,,> 3.33,,,,,,,,,,,"CC(C)[C@H](NC(=O)[C@H](Cc1ccc(O)cc1)NC(=O)[C@H](CC(=O)O)NC(=O)OCc1ccccc1)C(=O)N[C@H](/C=C/S(C)(=O)=O)CC(=O)O [Compound 76, Z-Asp-Tyr-Val-Aspmethyl vinyl sulfone]",60,55,more than 50%,
,> 10,> 10,,> 10,,,,,8.9,,,,,,"CC(C)[C@H](NC(=O)[C@@H](Cc1ccc2ccccc2n1)NC(=O)[C@H](CC(=O)O)NC(=O)OCc1ccccc1)C(=O)N[C@H](/C=C/S(C)(=O)=O)CC(=O)O (stereo in doubt) [Compound 71, Z-Asp-(D,L Ala(2′-quinolyl))-Val- Aspmethyl vinylsulfone]",,,,

# Continued, compound first:
Structure (SMILES),IC50 [1] [µM],IC50 [3] [µM],IC50 [4] [µM],inhibitory activity for caspase-1 (in words) [4],IC50 [5] [µM],inhibitory activity for caspase-9 (in words) [5],selectivity of caspase-3 over caspase-7 (IC50 fold difference) [6],inhibitory activity for caspase-5 (in words) [3],IC50 [7] [µM],IC50 [6] [µM],inhibition at 10 µM ([4]; read-out: Inhibition of Caspase-1) [%],inhibition at 10 µM ([5]; read-out: Inhibition of Caspase-9) [%],inhibition at 10 µM ([3]; read-out: Inhibition of Caspase-5) [%],activity against caspase-3 (in words) [7],fold less efficiency against caspase-1 than against group III caspases [4],"inhibition at 50 µM [2, 8] [%]","inhibition at 50 µM [2, 9] [%]",reduction of the percentage of PARP positive cells after staurosporine treatment [2],effectivity in inhibiting PARP cleavage (in words) [2]
"CC(C)[C@H](NC(=O)[C@H](Cc1ccc2ccccc2n1)NC(=O)[C@H](CC(=O)O)NC(=O)OCc1ccccc1)C(=O)N[C@H](/C=C/S(=O)(=O)Oc1ccccc1)CC(=O)O [Compound 65, Z-Asp-Ala(2′-quinolyl)-Val-Aspphenoxy vinyl sulfone]",0.2,> 3.33,,,,,,,,,,,,,,40,30,,
"CC(C)[C@H](NC(=O)[C@H](Cc1ccc2ccccc2n1)NC(=O)[C@H](CC(=O)O)NC(=O)OCc1ccccc1)C(=O)N[C@H](/C=C/S(=O)(=O)c1ccccc1)CC(=O)O [Compound 63, Z-Asp-Ala(2′-quinolyl)-Val-Aspphenyl vinyl sulfone]",0.9,> 3.33,> 3.33,No significant inhibitory activity,> 3.33,No significant inhibitory activity,~50 fold,No significant inhibitory activity,,,,,,,,15,10,,
"CC(C)[C@H](NC(=O)[C@@H](NC(=O)[C@H](CC(=O)O)NC(=O)OCc1ccccc1)c1ccccc1)C(=O)N[C@H](/C=C/S(C)(=O)=O)CC(=O)O [Compound 53, Z-Asp-Phg-Val-Aspmethyl vinyl sulfone]",0.1,> 10,,,> 10,,about 12 fold,,,,,,,,,80,55,more than 50%,highly effective relative to DEVD-fmk
"CC(C)[C@H](NC(=O)[C@H](Cc1ccc2ccccc2n1)NC(=O)[C@H](CC(=O)O)NC(=O)OCc1ccccc1)C(=O)N[C@H](/C=C(\Cl)S(C)(=O)=O)CC(=O)O [Compound 48, Z-Asp-Ala(2′-quinolyl)-Val-Asp- αchlorovinyl methylsulfone]",0.1,> 3.33,> 3.33,,,,,,,,,,,,,65,45,,showing effectivity
"COC(=O)C[C@@H](/C=C/S(C)(=O)=O)NC(=O)[C@@H](NC(=O)[C@@H](NC(=O)[C@H](CC(=O)OC)NC(=O)OCc1ccccc1)C1Cc2ccccc2C1)C(C)C [Compound 51, Z-Asp(β-methyl)-Indanylglycine-Val- Asp(β-methyl)methyl vinyl sulfone]",,> 3,> 3,,> 3,,,,,> 3,,,,,,80,65,,
"CC(C)[C@H](NC(=O)[C@H](Cc1ccc2ccccc2n1)NC(=O)[C@H](CC(=O)O)NC(=O)OCc1ccccc1)C(=O)N[C@H](/C=C/S(C)(=O)=O)CC(=O)O [Compound 55, Z-Asp-Ala(2′-quinolyl)-Val-Aspmethyl vinyl sulfone]",0.1,> 10,> 10,No significant inhibitory activity,> 3.33,No significant inhibitory activity,,No significant inhibitory activity,,,25,57,21,,,60,40,,showing effectivity
"CC(C)[C@H](NC(=O)OCc1ccccc1)C(=O)N[C@H](/C=C/S(C)(=O)=O)CC(=O)O [Compound 61, Z-Val-Aspmethyl vinyl sulfone]",,> 3.33,> 3.33,,> 3.33,,,,> 3.33,> 3.33,,,,abolished completely the activity,,5,5,,
"CC(C)[C@H](NC(=O)[C@@H](NC(=O)[C@H](CC(=O)O)NC(=O)OCc1ccccc1)C1Cc2ccccc2C1)C(=O)N[C@H](/C=C/S(C)(=O)=O)CC(=O)O [Compound 57, Z-Asp-Indanylglycine-Val-Aspmethyl vinyl sulfone]",0.1,> 3.33,,,> 3.33,,,,,,,,,,about 29 fold,70,65,,
